“Also recorded” adds a separate entry of the source.
Experiments:
[1] = tested on: ABA receptors (PYR1, PYL4, PYL8); assay: ABA receptor antagonism in vitro, statements not resolved by receptor (PYR1, PYL4, PYL8 panel); format: biochemical, Arabidopsis
Procedure: (§1) Prior to synthesizing a library of OP-4-triazoles we conducted model click reactions to establish the feasibility and efficiency of using unpurified reaction mixtures directly in ABA receptor activation assays. These reactions were performed using OPZ and 4-ethynyltoluene as follows: we mixed OPZ (4 uL, 25 mM), alkyne (10 uL, 10 mM), sodium ascorbate (2 uL, 20 mM), BTTA (2 uL, 20 mM) and copper(II) sulphate (2 uL, 10 mM) in a 200 μL PCR tube and incubated the reaction at 37° C. for 48 hr. The reaction was monitored using TLC. In parallel, we ran a scaled-up synthesis of the triazole using similar ratios of the reagents and conditions, followed by precipitation of the product by the addition of 2N HCl and subsequent filtration to yield triazole T1 from 4-ethynyltoluene as white powder in quantitative yields. The purified triazole and unpurified click reaction were both tested in receptor-mediated phosphatase inhibition assays. […] Reactions were mixed and equilibrated for 20 minutes, substrate (4-methylumbelliferyl phosphate, 1 mM final) was added, and fluorescence data were collected (λ, exc=360 nm, λ emm=460 nm) using a Tecan Infinite F200 Pro fluorimeter. PP2C activity was calculated relative to solvent-only control wells (i.e. receptors and PP2C in assay buffer, but no test compound); compounds were tested in duplicate. […]

Arabidopsis (Col) seeds = assay: Arabidopsis seed germination/greening assay in presence of ABA; format: in vivo; conditions: for blocking of ABA inhibition of cotyledon greening: 30 μM pure compound
Procedure: To evaluate and prioritize the 204 hits obtained, we examined their effects on ABA-mediated inhibition of Arabidopsis seed germination and seedling growth. Arabidopsis seeds germinate and produce photosynthetically active cotyledons within 4-days post imbibition under illumination. Low concentrations of ABA (i.e. 1 μM) inhibit both germination and seedling growth, which is easily quantified by image analysis of green pixel counts. This provides a simple test for ABA antagonists, as they will block the inhibitory effects of ABA on greening. We used this assay to characterize the 204 hit molecules. Greening experiments were performed in 96-well polystyrene petri plates using surface sterilized Arabidopsis (Col) seeds plated on to 0.7% agar medium containing ½-X MS salts, 0.5% sucrose, 1 μM ABA, and one of the 204 click reactions products (˜10 μM). After 4 days of stratification (4° C.), the plates were transferred to a growth chamber under continuous illumination and photographed 4 days later. Each experiment included ABA (1 μM ABA, no antagonist) and mock (no ABA) controls.
The OP-4-triazoles 48E9T, 49C10T, 49 Å2T, 1H6T and 6E4T were tested in Arabidopsis greening assays at 30 μM in presence or absence of 1 μM ABA using conditions described in Example 7. […] (FIG. 7).
Purified triazoles were evaluated for their ability to block the effects of exogenous ABA in inhibiting seed germination/greening, performed as described in Example 7 using the purified OP-4-peptidotriazole hits, PanMe, AA1, and OPZ at concentrations ranging from 200 nM to 50000 nM in triplicate in presence of 1 μM ABA. Seed germination was scored at the lowest concentration tested, while greening data (normalized to mock control) was fitted to log(inhibitor) vs. response-(variable slope) model using non-linear regression to infer the EC50S, using GraphPad Prism 6.0.

Arabidopsis seeds = assay: Thermoinhibition of seed germination assay; format: in vivo; conditions: 0.2 μM to 50 μM, 37° C. in dark for 72 hrs
Excerpt: Adverse environmental conditions during germination can affect dormancy in several species. For example, high temperatures during seed imbibition can prevent seed germination and induce a form of secondary seed dormancy in a process called thermoinhibition. Although thermoinhibtion is complex, elevated ABA levels induced by heat play a critical role, as evidenced by both the identification of ABA-deficient varieties of lettuce with reduced sensitivity to thermoinhibition and pharmacological experiments using fluridone, which disrupts ABA biosynthesis and thermoinhibition in many species. Chemicals that can counter this effect of heat stress could find use as seed treatments to ensure consistent germination under adverse conditions. […] 96 well polystyrene petri plates with surface sterilized Arabidopsis seeds plated on 0.7% agar medium containing ½-x MS salts, 0.5% sucrose, and doses spanning from 0.2 μM to 50 μM of different OP-4-peptidotriazoles, PanMe, AA1, OPZ and fluridone as a positive control. After 4 d of stratification at 4° C., the plates were transferred to an incubation chamber at 37° C. in dark for 72 hrs. After heat treatment, the plates were placed in dark in an incubation chamber at RT for 48 hrs and photographed.

ABA receptors = conditions: cited from earlier work
[2] = Light sensitivity of the isolated product; format: physicochemical; conditions: isolated solid, stored at −20° C.
Procedure: 142-(4-Azido-3,5-dicyclopropylphenyl)acetylaminolcyclohexanecarboxylic acid (2b; OPZ) To a solution of 2a (0.4 g, 1.01 mmoles, 1 equiv) in methanol/water 20 mL (1:1 v/v) was added lithium hydroxide (0.48 g, 20.2 mmoles, 20 equiv) and stirred at RT for 24 hr. After completion of the reaction (TLC), 2N HCl was added to the reaction mixture to precipitate the product as a white solid in near quantitative yields.

PYR1 = molecular target: T1, PYR1 (Arabidopsis thaliana, UniProt O49686); assay: ABA/receptor-mediated PP2C (ΔN-HAB1) phosphatase inhibition assay, PYR1; format: biochemical; conditions: 100 nM PYR1, 25 nM ΔN-HAB1, 50 μM test compound, presence or absence of 5 μM ABA
T1 construct: made in house
T1 sequence (O49686 1-191): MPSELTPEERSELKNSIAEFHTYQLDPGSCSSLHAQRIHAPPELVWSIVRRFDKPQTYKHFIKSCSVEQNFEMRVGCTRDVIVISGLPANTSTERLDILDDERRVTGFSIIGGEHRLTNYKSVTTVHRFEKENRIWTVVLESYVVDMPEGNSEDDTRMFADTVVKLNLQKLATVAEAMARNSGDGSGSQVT
Procedure: as §1

MAPKKK18 gene expression = assay: MAPKKK18::Luc luciferase reporter assay of ABA induced gene expression; format: in vivo, Arabidopsis thaliana; conditions: 25 μM test chemical, 25 μM ABA, 6 hr
Procedure: ASV1E9T, PanMe, AA1 and OPZ were evaluated for their ability to block effects of exogenous ABA in inducing MAPKKK18 gene expression in Arabidopsis seedlings. Arabidopsis seeds (MAPKKKI8::Luc reporter line) were surface sterilized grown and plant growth liquid medium (½ Murashige and Skoog medium and 0.5% Sucrose) under 16 hour light and 8 hour dark conditions. 10 day old seedlings were transferred to new plant growth liquid medium with test chemical at 25 μM in presence of equimolar concentration of ABA and 100 μM luciferin. Luciferase assay image were taken by XYZ camera after 6 hr of treatments. The average luminescent intensity was quantified using ImageJ. Average intensity was calculated for quadruplicates and the error bars on graphs represent the standard error of mean. […] (FIG. 14)

Arabidopsis seedlings = assay: Primary root growth assay in presence of ABA; format: in vivo; conditions: 5 and 10 μM, 10 μM ABA, 72 hrs
Procedure: Purified triazoles were evaluated for their ability to block effects of exogenous ABA in inhibiting primary root growth in Arabidopsis seedlings. Arabidopsis seeds were surface sterilized and plated on 0.7% agar medium containing 1⁄2-x MS salts, 0.5% sucrose. After 4 d of stratification at 4° C., transferred to dark chamber for 48 hrs. 5-6 seedlings at this stage were transferred to chemical plates containing purified triazole hits, PanMe, AA1 and OPZ at 5 and 10 μM in triplicate in presence of 10 μM ABA. Additional ABA controls (10 μM ABA, no antagonist) were also performed to assess effects of ABA on growth in absence of antagonist and transferred to dark chamber at RT for 72 hrs. Root lengths were measured and normalized to mock controls (FIG. 13).

O=C(Cc1cc(C2CC2)c(-n2cc(Cn3c(=O)oc4cc(Cl)ccc43)nn2)c(C2CC2)c1)NC1(C(=O)O)CCCCC1 [1H6T]
receptor selectivity (pan vs selective antagonist) [1]: pan antagonist
phytotoxicity (Arabidopsis (Col) seeds; 30 μM): possible phytotoxicity
blocking of ABA inhibition of cotyledon greening (Arabidopsis (Col) seeds; 1 μM ABA): weakly active

COc1ccc(-c2nc3ccccc3n2Cc2cn(-c3c(C4CC4)cc(CC(=O)NC4(C(=O)O)CCCCC4)cc3C3CC3)nn2)cc1 [6E4T]
receptor selectivity (pan vs selective antagonist) [1]: PYR1-selective antagonist
blocking of ABA inhibition of cotyledon greening (Arabidopsis (Col) seeds; 1 μM ABA): only weakly effective

O=C(Cc1cc(C2CC2)c(-n2cc(CNC(=O)c3cnc4ccccc4n3)nn2)c(C2CC2)c1)NC1(C(=O)O)CCCCC1 [48E9T]
blocking of ABA inhibition of cotyledon greening (Arabidopsis (Col) seeds; 1 μM ABA): highly effective in blocking the effects of ABA

O=C(Cc1cc(C2CC2)c(-n2cc(CNC(=O)c3coc(Br)c3)nn2)c(C2CC2)c1)NC1CCC(C(=O)O)CC1 (stereo not shown) [49 Å2T]
block of thermoinhibition of germination (Arabidopsis seeds): block thermoinhibition
blocking of ABA inhibition of cotyledon greening (Arabidopsis (Col) seeds; 1 μM ABA): highly effective in blocking the effects of ABA

Cc1cccc(C(=O)NCc2cn(-c3c(C4CC4)cc(CC(=O)NC4(C(=O)O)CCCCC4)cc3C3CC3)nn2)n1 [49C10T]
blocking of ABA inhibition of cotyledon greening (Arabidopsis (Col) seeds; 1 μM ABA): highly effective in blocking the effects of ABA

CCCCCCSC1=C(C)[C@](O)(/C=C/C(C)=C\C(=O)O)C(C)(C)CC1=O [AS6]
in vitro activity (literature antagonists) (ABA receptors): modest in vitro activity

[N-]=[N+]=Nc1c(C2CC2)cc(CC(=O)NC2CCC(C(=O)O)CC2)cc1C1CC1 (stereo not shown) [OPZ, 142-(4-Azido-3,5-dicyclopropylphenyl)acetylaminolcyclohexanecarboxylic acid]
light sensitivity [2]: extremely light sensitive
effect on PYR1 in PP2C activity assay (PYR1): weak partial PYR1 agonist/antagonist

CC1=C[C@@H](OCC#Cc2ccc(C)cc2)CC(C)(C)[C@@]1(O)/C=C/C(C)=C\C(=O)O [PanMe]
block of ABA induced MAPKKK18::Luc gene expression (MAPKKK18 gene expression): less effective
in vitro activity (literature antagonists) (ABA receptors): modest in vitro activity
block of thermoinhibition of germination (Arabidopsis seeds): blocks thermoinhibition but its effects decreased at higher concentrations
block of ABA inhibition of primary root growth (Arabidopsis seedlings): weak effects
phytotoxicity (Arabidopsis (Col) seeds; 200 nM to 50000 nM dose range): phytotoxicity; also recorded: phytotoxic at higher concentrations
blocking of ABA inhibition of seed germination/greening (Arabidopsis (Col) seeds; 200 nM to 50000 nM, 1 μM ABA, triplicate): blocks ABA's effects at lower concentrations

fluridone
block of thermoinhibition of germination (Arabidopsis seeds): blocks thermoinhibition at all concentrations tested

— patent US11641857B2, “Unusually potent ABA receptor pan-antagonists” (The Regents of the University of California, priority 2019, dated 2023)
